According to patent US20260226067A1, “MODULATORS OF TRPML, THEIR COMPOSITIONS AND METHODS OF USE” (Caraway Therapuetics, Inc., priority 2023, published 2026):

Tests used:
Human TRPML2 = target: T1, Human TRPML2 (Homo sapiens, UniProt Q8IZK6); test: Fluorescent TRPML2 assay (as for TRPML1); assay type: cell-based; conditions: as TRPML1 assay with TRPML2 subtype; read-out: Human TRPML 2 EC50
T1 construct: expressed in transfected cells
T1 sequence (Q8IZK6 1-566): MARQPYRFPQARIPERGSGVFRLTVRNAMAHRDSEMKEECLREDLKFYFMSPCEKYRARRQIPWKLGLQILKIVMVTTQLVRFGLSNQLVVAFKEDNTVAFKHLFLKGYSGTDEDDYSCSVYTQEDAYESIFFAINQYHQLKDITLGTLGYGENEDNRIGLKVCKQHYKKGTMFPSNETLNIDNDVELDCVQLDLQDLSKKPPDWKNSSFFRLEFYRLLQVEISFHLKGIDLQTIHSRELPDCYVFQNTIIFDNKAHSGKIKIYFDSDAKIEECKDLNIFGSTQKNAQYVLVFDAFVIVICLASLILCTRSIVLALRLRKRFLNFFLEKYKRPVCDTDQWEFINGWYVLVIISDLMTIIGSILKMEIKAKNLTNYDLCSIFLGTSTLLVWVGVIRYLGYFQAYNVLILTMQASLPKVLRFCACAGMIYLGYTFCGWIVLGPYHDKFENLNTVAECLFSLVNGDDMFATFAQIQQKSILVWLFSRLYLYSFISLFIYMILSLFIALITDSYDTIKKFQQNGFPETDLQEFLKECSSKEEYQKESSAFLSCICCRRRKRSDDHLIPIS
Protocol: (§1) HEK-293 Trex cells were stably transfected with a construct consisting of the human coding sequence for TRPML1 cloned into the tet-inducible plasmid pCDNA5 T/O. Mutations were introduced into the TRPML1 sequence to facilitate expression on the cell surface (Silvia Vergarajauregui, Rosa Puertollano Traffic. 2006 March; 7(3): 337-353). Briefly, the cells are cultured in 150 mm round tissue culture dishes containing 20 mL of media. The day before the assay the cells are rinsed with DPBS-Ca-Mg and then treated briefly with Trypsin-EDTA. The Trypsin-EDTA is diluted with growth media, and cells are counted. 38×10^6 cells are re-plated into 150 mm round tissue culture dishes in media containing 0.5 ug/mL doxycycline to induce expression of hTRPML1.
(§2) The day of the experiment cells are lifted from the plates as above and collected by centrifugation. The cells are then suspended in dye loading buffer consisting of Ringer's solution supplemented with 0.1% Pluronic Acid and 1 micromolar Fluo4-AM dye. Cells are loaded for ~60 minutes in the dark with occasional mixing. The cells are collected by centrifugation, the loading media aspirated, and the cells resuspended in 25 mL Ringer's solution and incubated ~60 minutes in the dark. The cells are again collected by centrifugation, rinsed in Ringer's Solution and resuspended to 0.2×10^6 cells/mL in modified Ringer's solution containing 10 mM calcium.
(§3) Compounds are dissolved to a concentration of 10 millimolar with DMSO. Compound plates are created by dispensing compounds into 384 well black wall clear bottom plates (Greiner 781091). Positive and negative controls are included on each plate. Typically, different amounts of each compound are tested ranging from 100 nanoMoles (20 micromolar final concentration) decreasing in half-log steps to 31 picoMoles (6 nanomolar final concentration). Each concentration is typically tested in triplicate.
(§4) 50 microliters of dye-loaded cells are dispensed into each well of the compound assay plate created above. The fluorescence in each well is then determined with an excitation wavelength of 480 nm and an emission wavelength of 540 nm using either a Molecular Devices SpectraMax multimode plate reader or a Hamamatsu FDSS/uCell plate imager.
(§5) The resulting fluorescence for each well is exported as an ascii file and loaded into our LIMS for analysis. The percent activity of each compound at each concentration is determined by comparison to the positive and negative control wells included in each plate.
(§6) Assays for TRPML2 and TRPML3 were performed as above for TRPML1, by substituting the appropriate TRPML2 or TRPML3 subtype for the TRPML1.
(§7) EC50 values were calculated using a non-linear regression of Prism. In the table, “A” indicates an EC50 of less than 100 nM, “B” indicates an EC50 range from 100 nM to 500 nM; “C” indicates an EC50 range from 500 nM to 2 μM; and “D” indicates an EC50 greater than 2 μM.

Human TRPML3 = target: T2, Human TRPML3 (Homo sapiens, UniProt Q8TDD5); test: Fluorescent TRPML3 assay (as for TRPML1); assay type: cell-based; conditions: as TRPML1 assay with TRPML3 subtype; read-out: Human TRPML 3 EC50
T2 construct: expressed in transfected cells
T2 sequence (Q8TDD5 1-553): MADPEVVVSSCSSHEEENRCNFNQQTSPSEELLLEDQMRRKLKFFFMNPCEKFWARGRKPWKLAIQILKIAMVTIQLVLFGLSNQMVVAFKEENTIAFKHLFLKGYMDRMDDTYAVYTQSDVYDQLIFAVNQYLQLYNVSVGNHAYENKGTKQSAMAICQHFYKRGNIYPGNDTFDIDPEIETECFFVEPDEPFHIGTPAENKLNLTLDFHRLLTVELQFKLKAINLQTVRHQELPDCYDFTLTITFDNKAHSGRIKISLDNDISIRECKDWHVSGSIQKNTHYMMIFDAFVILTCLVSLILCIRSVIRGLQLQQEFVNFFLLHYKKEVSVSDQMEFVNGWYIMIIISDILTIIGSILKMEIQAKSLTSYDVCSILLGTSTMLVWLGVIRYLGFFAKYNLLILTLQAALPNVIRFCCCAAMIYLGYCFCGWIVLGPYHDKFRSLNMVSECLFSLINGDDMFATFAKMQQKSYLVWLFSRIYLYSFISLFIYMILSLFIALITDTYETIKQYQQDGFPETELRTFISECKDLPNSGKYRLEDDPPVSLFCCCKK
Protocol: as §1, §2, §3, §4, §5, §6, §7

human TRPML1 = human TRPML1 (Homo sapiens, UniProt Q9GZU1); test: Fluorescent TRPML1 assay (Fluo4-AM calcium fluorescence); assay type: cell-based; conditions: HEK-293 Trex cells expressing hTRPML1, Fluo4-AM fluorescence; read-out: Human TRPML 1 EC50
Sequence of human TRPML1 (Q9GZU1 whole entry L15A/L16A/L577A/L578A, form open): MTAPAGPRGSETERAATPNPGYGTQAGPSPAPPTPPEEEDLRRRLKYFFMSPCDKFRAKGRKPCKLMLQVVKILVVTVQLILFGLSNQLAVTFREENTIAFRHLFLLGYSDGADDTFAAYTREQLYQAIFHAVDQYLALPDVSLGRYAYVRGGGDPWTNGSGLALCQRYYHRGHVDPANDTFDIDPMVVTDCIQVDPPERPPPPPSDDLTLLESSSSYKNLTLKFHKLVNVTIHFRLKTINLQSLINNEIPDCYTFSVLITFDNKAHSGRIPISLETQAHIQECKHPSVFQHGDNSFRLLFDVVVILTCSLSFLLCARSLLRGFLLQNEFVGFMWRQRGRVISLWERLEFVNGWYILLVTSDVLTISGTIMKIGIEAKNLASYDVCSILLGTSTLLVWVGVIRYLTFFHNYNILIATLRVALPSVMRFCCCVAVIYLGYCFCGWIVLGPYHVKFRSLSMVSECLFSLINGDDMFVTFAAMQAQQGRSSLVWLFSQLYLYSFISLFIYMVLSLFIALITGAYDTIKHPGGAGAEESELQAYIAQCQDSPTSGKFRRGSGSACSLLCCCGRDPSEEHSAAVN
Protocol: as §1, §2, §3, §4, §5, §7

TRPMLs = conditions: background statement; cited from earlier work

Structure (SMILES) | EC50 (Human TRPML2) [nM] | EC50 (Human TRPML3) [nM] | EC50 (human TRPML1) [nM] | concentration needed to effectively activate TRPMLs (TRPMLs)
C[C@@H]1CN(c2ncnc3c2c(-c2ccccc2)cn3-c2cc(C#N)ccn2)[C@@H](C)CN1C(=O)c1ccccc1 [Compound 116, 2-(4-((2S,5R)-4-benzoyl-2,5-dimethylpiperazin-1-yl)-5-phenyl-7H-pyrrolo[2,3-d]pyrimidin-7-yl)isonicotinonitrile] | 500 to 2000 | 100 to 500 | < 100 | 
COc1ccccc1C(=O)N1C[C@H](C)N(c2ncnc3c2c(-c2ccccc2F)cn3-c2cc(C#N)ccn2)C[C@H]1C [Compound 119, 2-(5-(2-fluorophenyl)-4-((2S,5R)-4-(2-methoxybenzoyl)-2,5-dimethylpiperazin-1-yl)-7H-pyrrolo[2,3-d]pyrimidin-7-yl)isonicotinonitrile] | 100 to 500 | < 100 | < 100 | 
CC(C)c1ccccc1C(=O)N1C[C@H](C)N(c2ncnc3c2c(-c2ccccc2F)cn3-c2cc(C#N)ccn2)C[C@H]1C [Compound 120, 2-(5-(2-fluorophenyl)-4-((2S,5R)-4-(2-isopropylbenzoyl)-2,5-dimethylpiperazin-1-yl)-7H-pyrrolo[2,3-d]pyrimidin-7-yl)isonicotinonitrile] | 100 to 500 | < 100 | < 100 | 
C[C@@H]1CN(c2ncnc3c2c(-c2ccccc2F)cn3-c2cc(C#N)ccn2)[C@@H](C)CN1C(=O)c1ccccc1N(C)C [Compound 121, 2-(4-((2S,5R)-4-(2-(dimethylamino)benzoyl)-2,5-dimethylpiperazin-1-yl)-5-(2-fluorophenyl)-7H-pyrrolo[2,3-d]pyrimidin-7-yl)isonicotinonitrile] | 100 to 500 | < 100 | < 100 | 
C[C@H]1CN(C(=O)c2ccccc2)CCN1c1ncnc2c1c(-c1ccccc1F)cn2-c1cc(C#N)ccn1 [Compound 122, (S)-2-(4-(4-benzoyl-2-methylpiperazin-1-yl)-5-(2-fluorophenyl)-7H-pyrrolo[2,3-d]pyrimidin-7-yl)isonicotinonitrile] | 500 to 2000 | 100 to 500 | < 100 | 
CC1CC(C)(C)N(C(=O)CN2C(=O)c3ccccc3C2=O)c2ccccc21 (stereo not shown) [ML-SA1] |  |  |  | ~ 10 μM
